The values that follow come from patent publication US7115633B2, “Benzosuberonylpiperdine compounds as analgesics” (GlaxoSmithKline S.p.A., priority 2000, dated 2006).

One may read the melting point as the temperature, or range, at which the solid turns liquid. In turn, `Cc1cccc2c1CC[C@@H](CN1CCC(c3ccccc3Cl)CC1)C[C@H]2O.Cl` (racemic) gave a melting point greater than 250 °C.

With `Cl.O[C@@H]1C[C@H](CN2CCC(c3ccccc3Cl)CC2)CCc2c(F)cccc21` (racemic), the melting point is 245 to 247 °C. The figure for `Cc1ccccc1C1CCN(CC2CCc3c(F)cccc3C(O)C2)CC1.Cl` (racemic) is 231 to 233 °C. The figure for `Cc1cccc(C2CCN(C[C@@H]3CCc4c(C)cccc4[C@H](O)C3)CC2)c1.Cl` (racemic) is greater than 250 °C; for `Cc1cccc(C2CCN(C[C@H]3CCc4c(Br)cccc4[C@H](O)C3)CC2)c1.Cl` (racemic) it is greater than 250 °C.
